Measured values published in article PMC13047053, “Crystal structure of human INPP5K with an allosteric inhibitor reveals the structural basis for species specific potency” (Scientific Reports, 2026).

How the values were obtained:
[1] = molecular target: T1, human INPP5K-cd (catalytic domain, 1-328) (Homo sapiens, UniProt Q9BT40); assay: Fluorescence polarization assay to evaluate phosphatase inhibition; assay type: biochemical; conditions: 20 µM diC8-PI(3,4,5)P3, 30 min
T1 construct: human INPP5K catalytic domain (amino acids 1–328, INPP5K-cd, UniProt ID: Q9BT40); His6-MBP (MBP amino acids 1–387) (N, cleaved yes); TEV protease site ENLYFQG (N, cleaved yes); made in house; host or cells: E. coli Rosetta2 (DE3)
T1 sequence (Q9BT40 1-328): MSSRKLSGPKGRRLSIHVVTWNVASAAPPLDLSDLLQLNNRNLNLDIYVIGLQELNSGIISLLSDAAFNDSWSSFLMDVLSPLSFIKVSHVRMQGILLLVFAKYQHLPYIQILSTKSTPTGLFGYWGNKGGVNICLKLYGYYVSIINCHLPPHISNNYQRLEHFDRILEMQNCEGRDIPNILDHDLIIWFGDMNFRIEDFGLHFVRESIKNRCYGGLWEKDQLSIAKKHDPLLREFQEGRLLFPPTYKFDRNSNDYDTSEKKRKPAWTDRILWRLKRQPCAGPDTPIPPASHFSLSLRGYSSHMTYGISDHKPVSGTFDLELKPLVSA
Text: (§1) The oligonucleotides used for vector construction were synthesized and purchased from GenScript Inc. (Tokyo, Japan). The cDNA encoding human INPP5K catalytic domain (amino acids 1–328, INPP5K-cd, UniProt ID: Q9BT40), which excluded the SKICH region from the full-length INPP5K sequence, was cloned downstream of MBP (amino acids 1–387) with an N-terminal His6-tag in the pET28 expression vector, a Novagen product (Merck KGaA, Darmstadt, Germany). Between the MBP and INPP5K-cd sequences, the Tobacco Etch Virus protease cleavage site (ENLYFQG) was inserted, such that the MBP–INPP5K-cd fusion protein could be digested by TEV protease during purification. Furthermore, using the Gibson Assembly method, the sequence encoding the amino acids 280–299 ([…]) of INPP5K cd was replaced by the sequence encoding AKANPSGFLLTQKD, which corresponds to the amino acids 283–296 of the rat INPP5K-cd (UniProt ID: Q9R0B6), resulting in the deletion of six amino acid residues (delta-INPP5K-cd). The truncated construct was designed using a comparison between a structure model and the structures of several IP5Pases[9]–[11]. […] The concentration of protein obtained was measured using the Bradford method, with bovine serum albumin as the standard. Fractions corresponding to each purification step were analyzed by SDS-PAGE, followed by staining of the gel with Coomassie brilliant blue R-250. […]

[2] = molecular target: T2, human delta-INPP5K-cd (loop-substituted catalytic domain) (Homo sapiens, UniProt Q9BT40, C280K/DEL284-290/G282N/G299D/H292G/INS279A/L297Q/R298K/S294L/S296T); assay: as above; assay type: biochemical; conditions: 20 µM diC8-PI(3,4,5)P3, 30 min
T2 construct: human INPP5K catalytic domain (amino acids 1–328, INPP5K-cd, UniProt ID: Q9BT40); His6-MBP (MBP amino acids 1–387) (N, cleaved yes); TEV protease site ENLYFQG (N, cleaved yes); made in house; host or cells: E. coli Rosetta2 (DE3)
T2 sequence (Q9BT40 other isoform, or with tags, fused parts or gaps with the stated changes): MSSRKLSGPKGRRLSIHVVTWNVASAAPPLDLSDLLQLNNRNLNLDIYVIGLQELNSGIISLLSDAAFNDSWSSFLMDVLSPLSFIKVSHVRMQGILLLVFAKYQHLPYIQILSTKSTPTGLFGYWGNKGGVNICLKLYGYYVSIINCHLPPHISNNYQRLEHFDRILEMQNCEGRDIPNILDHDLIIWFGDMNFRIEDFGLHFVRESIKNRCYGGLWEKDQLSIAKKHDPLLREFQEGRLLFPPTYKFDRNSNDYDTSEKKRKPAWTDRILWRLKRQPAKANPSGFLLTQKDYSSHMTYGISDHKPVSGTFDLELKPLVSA
Text: as §1

In the case of `CC(C)c1sc(NC(=O)c2ccccc2)c(C(=O)O)c1-c1ccccc1` [CPD-1], the IC50 [1] is reported as 2300 nM and the IC50 [2] is reported as 2900 nM.
